Each structure is given as a SMILES string.

The subject of one experiment is blood glucose level. The experiment can be described thus: Hypoglycemic activity in obese diabetic mice (Table 1). The format is in vivo, male viable yellow obese-diabetic mice. To be noted: Mus musculus, ip, 4 h, 50 mg/kg, intraperitoneal, 4 hrs; read-out: Percent of Initial Blood Glucose Level After 4 hrs. In short, it runs like this:
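Male viable yellow obese-diabetic mice, six per group, dosed intraperitoneally once with compound in saline containing 2% Emulphor. Blood glucose measured by glucose oxidase before dosing and at 2 and 4 h. Values are the 2 h and 4 h glucose as % of pre-dose level.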
Consider `CCCOc1ccc(C=C2SC(=S)NC2=O)cc1` [Example 61, 5-[(4-propoxyphenyl)methylene]-2-thioxo-4-thiazolidinone], for which the response vs control in vivo at 50 mg/kg worked out at 61 ± 5%.

The subject of a further experiment is blood glucose level. The experiment can be described thus: Hypoglycemic activity in normal fed rats (Table 2). To be noted: Rattus norvegicus; 200 mg/kg, oral, 3 hrs; read-out: Percent of Initial Blood Glucose Level After 3 hrs. Format: in vivo, male Sprague Dawley rats. Here is the method: The procedure used in this test system is described below.
The desired dose level of each test formulation was administered to four rats by oral […] at the beginning of the experiment. Blood glucose levels were determined immediately before the first dose and at 3 and 5 hours thereafter by an enzymatic procedure employing glucose oxidase and peroxidase coupled with a chromogenic oxygen acceptor. A mean was taken of the 4 values obtained before the first dose and at the 3 and 5 hour intervals.
Take `CCCOc1ccc(C=C2SC(=S)NC2=O)cc1` [Example 61, 5-[(4-propoxyphenyl)methylene]-2-thioxo-4-thiazolidinone]: the response vs control in vivo at 200 mg/kg was determined as 89%.

On to `COc1cc(C=C2SC(=S)NC2=O)cc(OC)c1O` [Example 63, 5-[(3,5-dimethoxy-4-hydroxyphenyl)methylene]-2-thioxo-4-thiazolidinone], for which the response vs control in vivo at 200 mg/kg came out at 69%.

As for `CCCCCCOc1ccc(C=C2SC(=S)NC2=O)cc1OC` [Example 68, 5-[(3-methoxy-4-hexoxyphenyl)methylene]-2-thioxo-4-thiazolidinone], the response vs control in vivo at 200 mg/kg was 88%.

As for `CCCCCCCCOc1ccc(C=C2SC(=S)NC2=O)cc1OC` [Example 69, 5-[(3-methoxy-4-octoxyphenyl)methylene]-2-thioxo-4-thiazolidinone], the response vs control in vivo at 200 mg/kg amounted to 93%.

The experiment is the same for the next values; noted with them: Rattus norvegicus; 200 mg/kg, oral, 5 hrs; read-out: Percent of Initial Blood Glucose Level After 5 hrs.
Regarding `CCCOc1ccc(C=C2SC(=S)NC2=O)cc1` [Example 61, 5-[(4-propoxyphenyl)methylene]-2-thioxo-4-thiazolidinone], the response vs control in vivo at 200 mg/kg worked out at 82%.

For `COc1cc(C=C2SC(=S)NC2=O)cc(OC)c1O` [Example 63, 5-[(3,5-dimethoxy-4-hydroxyphenyl)methylene]-2-thioxo-4-thiazolidinone], the response vs control in vivo at 200 mg/kg is 52%.

Take `CCCCCCOc1ccc(C=C2SC(=S)NC2=O)cc1OC` [Example 68, 5-[(3-methoxy-4-hexoxyphenyl)methylene]-2-thioxo-4-thiazolidinone]: the response vs control in vivo at 200 mg/kg stood at 89%.

Consider `CCCCCCCCOc1ccc(C=C2SC(=S)NC2=O)cc1OC` [Example 69, 5-[(3-methoxy-4-octoxyphenyl)methylene]-2-thioxo-4-thiazolidinone], for which the response vs control in vivo at 200 mg/kg came to 88%.

The target of the next experiment is T1, Human liver cathepsin D (Homo sapiens, UniProt P07339).
T1 construct: purchased Athens Research and Technology, Athens, Ga; host or cells: human liver
T1 sequence (P07339 169-412 limits assumed): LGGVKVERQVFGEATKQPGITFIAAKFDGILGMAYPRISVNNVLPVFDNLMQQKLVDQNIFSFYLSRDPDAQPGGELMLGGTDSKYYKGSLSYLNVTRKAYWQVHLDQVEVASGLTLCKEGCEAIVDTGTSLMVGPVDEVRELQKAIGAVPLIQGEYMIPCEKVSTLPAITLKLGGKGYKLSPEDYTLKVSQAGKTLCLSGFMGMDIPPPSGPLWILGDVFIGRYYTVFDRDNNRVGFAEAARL
T1 sequence (P07339 65-161 limits assumed): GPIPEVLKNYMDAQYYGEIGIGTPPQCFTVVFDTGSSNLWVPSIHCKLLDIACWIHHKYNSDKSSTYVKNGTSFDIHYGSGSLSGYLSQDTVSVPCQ
The experiment can be described thus: Cathepsin D inhibition, fluorometric assay (Tables 5 and 6). Format: biochemical.
Details: not given
Here is the method:
Human liver cathepsin D (Athens Research and Technology, Athens, Ga.) was diluted in assay buffer, 200 mM NaOAc, pH 4.5, 150 mM NaCl to 500 ng/mL and then 100 μL of this cathepsin D solution was added to each well of a 96 well plate with the exception of control wells which received just 100 μL of assay buffer. […] Blank and enzyme control wells each received 5 μL of the DMSO vehicle.
After incubation at 37° C. for 30 minutes, cathepsin D activity was terminated by the addition of 100 μL per well of 400 mU/mL microsomal leucine aminopeptidase (EC 3.4.11.2, Sigma, St. Louis, Mo.) in 1M Tris-HCl, pH 8.0.
Following a two hour incubation at 37° C., to allow the aminopeptidase to release the fluorophore, 7-amido-4-methylcoumarin (AMC) from the products of cathepsin D cleavage, the plates were again analyzed in the fluorometer. In order to check for potential false positives, i.e., inhibitors of microsomal leucine aminopeptidase, residual aminopeptidase activity was monitored directly in each well by the addition of 20 μL/well of 2.5 mM Leu-pNA (Bachem Biosciences, Philadelphia, Pa.) in 10% DMSO.
Regarding `CCCCCCOc1ccc(C=C2SC(=S)NC2=O)cc1OC` [Example 68, 5-[(3-methoxy-4-hexoxyphenyl)methylene]-2-thioxo-4-thiazolidinone], the IC50 (in general, the concentration that gives 50% inhibition) came out at 10.2 µM.

Take `CCCCCCCCOc1ccc(C=C2SC(=S)NC2=O)cc1OC` [Example 69, 5-[(3-methoxy-4-octoxyphenyl)methylene]-2-thioxo-4-thiazolidinone]: 2.1 µM corresponded to half-maximal inhibition (IC50).

Consider `O=C1NC(=S)SC1=Cc1cccc(Oc2ccccc2)c1` [Example 77, 5-[(3-phenoxyphenyl)methylene]-2-thioxo-4-thiazolidinone], for which the 50% inhibitory concentration (IC50) is 3.7 µM.

Regarding `CCCCCCCOc1ccc(C=C2SC(=S)N(N(C)C)C2=O)cc1OC` [Example 81, 5-[(3-methoxy-4-heptoxyphenyl)methylene]-2-thioxo-3-dimethylamino-4-thiazolidinone], half-maximal inhibition (IC50) required 319 µM.

The experiment is the same for the next values; noted with them: Compound Stock Concentration 4.15 μg/ml.
For the compound `COc1cc(C=C2SC(=S)NC2=O)cc(OC)c1O` [Example 63, 5-[(3,5-dimethoxy-4-hydroxyphenyl)methylene]-2-thioxo-4-thiazolidinone], the inhibition – broadly, the percentage by which the read-out fell short of the control – at 4.15 µg/mL (stock) amounted to 53%.

The compound `CCCCCCOc1ccc(C=C2SC(=S)NC2=O)cc1OC` [Example 68, 5-[(3-methoxy-4-hexoxyphenyl)methylene]-2-thioxo-4-thiazolidinone] showed an inhibition at 4.15 µg/mL (stock) of 53.7%.

Consider `CCCCCCCCOc1ccc(C=C2SC(=S)NC2=O)cc1OC` [Example 69, 5-[(3-methoxy-4-octoxyphenyl)methylene]-2-thioxo-4-thiazolidinone], for which the inhibition at 4.15 µg/mL (stock) amounted to 51%.

On to `O=C1NC(=S)SC1=Cc1cccc(Oc2ccccc2)c1` [Example 77, 5-[(3-phenoxyphenyl)methylene]-2-thioxo-4-thiazolidinone], for which the inhibition at 4.15 µg/mL (stock) was determined as 64%.

The experiment is the same for the next values; noted with them: Compound Stock Concentration 8.3 μg/ml.
Compound `CCCCCCCOc1ccc(C=C2SC(=S)N(N(C)C)C2=O)cc1OC` [Example 81, 5-[(3-methoxy-4-heptoxyphenyl)methylene]-2-thioxo-3-dimethylamino-4-thiazolidinone] displayed an inhibition at 8.3 µg/mL (stock) of 21%.

Staying with this experiment, now noted: Compound Stock Concentration 10.0 μg/ml.
`O=C1NC(=S)SC1=Cc1cccc(Oc2ccccc2)c1` [Example 77, 5-[(3-phenoxyphenyl)methylene]-2-thioxo-4-thiazolidinone] came in with an inhibition at 10 µg/mL (stock) of 87%.

For another experiment, the system named is β-amyloid protein. The experiment can be described thus: β-amyloid protein production inhibition in 293 751 SWE and CHO 751 SWE cells, ELISA (Table 7). Format: cell-based. To be noted: Compound Stock Concentration 10.0 μg/ml; normalized for cytotoxicity. Here is the method:
Two cell lines (human kidney cell line 293 and Chinese hamster ovary cell line CHO) were stably transfected with the gene for APP751 containing the double mutation Lys-651-Met-652 to Asn-651-Leu-652 (APP-751 numbering) commonly called the Swedish mutation using the method described in Citron et al., Nature 360:672-674 (1992). The transfected cell lines were designated as 293 751 SWE and CHO 751 SWE, and were plated in Corning 96 well plates at 2.5×10^4 or 1×10^4 cells per well respectively in Dulbecco's minimal essential media (DMEM) plus 10% fetal bovine serum. […] These compound stocks were prepared by dissolving a sufficient quantity of the particular compound to be tested in DMSO such that various concentrations were obtained. After this pretreatment period, the conditioned media was removed and replaced with fresh conditioned media and the cells were incubated for an additional two hours.
After treatment, plates were centrifuged in a Beckman GPR at 1200 rpm for five minutes at room temperature to pellet cellular debris from the conditioned media. From each well, 100 μL of conditioned media were transferred into an ELISA plate precoated with antibody 266 [Seubert et al., Nature, 359:325-327 (1992)] and stored at 4° C. overnight prior to the completion of the ELISA assay the next day.
Cytotoxic effects of the compounds were measured by a modification of the method of Hansen et al., J. Immun. Meth. 119:203-210 (1989). To the cells remaining in the tissue culture plate, was added 25 μL of a 3-(4,5-dimethylthiazol-2-yl)-2,5-diphenyltetrazolium bromide (MTT) stock solution (5 mg/mL) to a final concentration of 1 mg/mL. Cells were incubated at 37° C. for one hour, and cellular activity was stopped by the addition of an equal volume of MTT lysis buffer (20% w/v sodium dodecylsulfate in 50% DMF, pH 4.7). Complete extraction was achieved by overnight shaking at room temperature. The difference in the OD562nm and the OD650nm was measured in a Molecular Devices UVmax microplate reader as an indicator of the cellular viability.
The results of the β-amyloid protein ELISA were fit to a standard curve and expressed as ng/mL β-amyloid protein peptide. In order to normalize for cytotoxicity, these β-amyloid protein results were divided by the cytotoxicity results and expressed as a percentage of the results from a drug-free control.
Background: In an ELISA, binding on a coated surface is turned into a signal by an enzyme label.
Regarding `O=C1NC(=S)SC1=Cc1cccc(Oc2ccccc2)c1` [Example 77, 5-[(3-phenoxyphenyl)methylene]-2-thioxo-4-thiazolidinone], the inhibition at 10 µg/mL (stock) was determined as 25%.

Turning to `CCCCCCCOc1ccc(C=C2SC(=S)N(N(C)C)C2=O)cc1OC` [Example 81, 5-[(3-methoxy-4-heptoxyphenyl)methylene]-2-thioxo-3-dimethylamino-4-thiazolidinone], the inhibition at 10 µg/mL (stock) is 100%.
